Test results as given in patent US5332733A, “Heterocyclically substituted piperazinoakylbenzoxazine and piperazinoalkylbenzothiazine compounds, processes for preparing them, and medicaments containing them” (Kali-Chemie Pharma GmbH, priority 1990, dated 1994).
Like-named read-outs stand apart in the source and are kept apart here.

What was measured:
mice = conditions: mouse, in vivo, 1440 min
Description: 2. Determination of Minimum Toxic Dose
Maximum doses of 300 mg/kg of the test substance were administered orally to male mice weighing 20-25 g. The animals were observed carefully for 3 hours for toxicity symptoms. In addition, all symptoms and deaths were recorded over a period of 24 hours after administration. Associated symptoms were also observed and recorded. If death or severe toxic symptoms were observed, additional mice were administered increasingly lower doses. The lowest dose which produced death or severe toxic symptoms is given in the following Table B as the minimum toxic dose.

histamine-(H1)-receptor = target: T1, histamine-(H1)-receptor (Cavia porcellus, UniProt P31389); test: Histamine-(H1)-receptor antagonism in vitro, histamine-induced contractions of isolated ileum; format: cell-based, guinea pig (Dunkin Hartley); conditions: test substance 10^-6 mole/l, histamine 5 × 10^-6 mole/l
T1 construct: Segments of the ileum 1.5 cm long from Dunkin Hartley guinea pigs; from tissue; host or cells: isolated ileum of Dunkin Hartley guinea pigs
T1 sequence (P31389 whole entry): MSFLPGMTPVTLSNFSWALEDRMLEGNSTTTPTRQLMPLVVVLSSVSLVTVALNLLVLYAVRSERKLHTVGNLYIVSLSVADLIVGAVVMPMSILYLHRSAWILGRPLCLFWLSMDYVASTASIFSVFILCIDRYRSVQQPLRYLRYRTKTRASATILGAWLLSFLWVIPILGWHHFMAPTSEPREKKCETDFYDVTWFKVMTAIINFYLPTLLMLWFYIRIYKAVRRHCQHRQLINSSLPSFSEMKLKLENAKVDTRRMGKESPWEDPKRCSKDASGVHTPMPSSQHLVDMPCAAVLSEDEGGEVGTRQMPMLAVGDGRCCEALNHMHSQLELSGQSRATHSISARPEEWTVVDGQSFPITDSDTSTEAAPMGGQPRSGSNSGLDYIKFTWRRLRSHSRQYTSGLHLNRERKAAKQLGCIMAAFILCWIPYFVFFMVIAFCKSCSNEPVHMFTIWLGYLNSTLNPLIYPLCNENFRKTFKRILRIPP
Description: 3. Investigation of Anti-Histamine-(H1) Effect Based on Histamine-(H1)-Receptor Antagonism In Vitro
To investigate the histamine-(H1)-receptor antagonism of the test substances, the inhibiting effect of the substances on histamine-induced contractions of the smooth muscle was determined in vitro on the isolated organ. Isolated strips of organ from the ileum are suitable for this purpose. In an organ bath of physiological saline solution the smooth muscle strips react to the addition of histamine by contracting. […] The extent of regression of the contraction is an indication of the anti-histamine-(H1) activity of the compounds. The investigation was carried out analogously to the method originally described by Magnus (Pfluegers Arch. 102, 123 (1904)).
Procedure for determining the smooth muscle contraction inhibiting effect on isolated guinea pig ileum induced by a 5×10^-6 molar histamine concentration
Segments of the ileum 1.5 cm long from Dunkin Hartley guinea pigs having a body weight of 300 500 g were used for the test. Each strip was placed in an organ bath of 10 ml of physiological saline solution according to Krebs-Henseleit and attached to a conventional apparatus for isotonic measurement of changes in length of the ileum strips (automated Celaster measuring apparatus), so that the tissue was under 1 g of tension. The bath was kept at a pH of 7.4 and gassed with a mixture of 5% CO2 and 95% O2. After an equilibration phase, an isotonic contraction of the tissue was induced by adding histamine in a final concentration of 5×10^-6 mole/liter and washing it out again after a contact time of 30 seconds. Only tissues samples from which three reproducible contractions were obtained at 10 minute intervals were used in the subsequent test. The test substances were then added in a final concentration of 10^-6 mole/liter, and after 30 seconds contact time histamine was again added up to a concentration of 5×10^-6 mole/liter. The resulting contractions were measured over 30 seconds. The tissue was then washed several times over a period of 10 minutes. Histamine was then added again to stimulate a contraction. The resulting contractions were again measured over 30 seconds. The difference between the amplitude of the contraction obtained by histamine addition alone and the amplitude of the contraction obtained in the presence of the test substance was determined and expressed in terms of % inhibition.
The inhibiting effects on the contractions induced by histamine 30 seconds after administration of the test substance and on the contractions induced by the addition of histamine 10 minutes later are listed in the table.

[1] = 0.5 min, after 30 seconds, read-out: % inhibition of histamine-induced ileum contractions after 30 seconds
[2] = 10 min, after 10 minutes (after washing), read-out: % inhibition of histamine-induced ileum contractions after 10 minutes

Compound | Minimum toxic dose (mice) [mg/kg] | inhibition at 1 µM (histamine-(H1)-receptor; [1]) [%] | inhibition at 1 µM (histamine-(H1)-receptor; [2]) [%]
Cc1ccnc(N2CCN(CCCCC3Sc4ccccc4NC3=O)CC2)c1 (stereo not shown) [Example 1, 2-{4-[4-(4-methylpyridin-2-yl)-piperazin-1-yl]butyl}-2H-1,4-benzothiazine-3(4H)-one] | 300 | – | –
Cc1ccnc(N2CCN(CCCC3Oc4ccccc4NC3=O)CC2)c1 (stereo not shown) [Example 9] | 300 | – | –
Cc1ccnc(N2CCN(CCCC3Sc4ccccc4NC3=O)CC2)c1 (stereo not shown) [Example 8] | 100 | 42 | 5
Cc1ccnc(N2CCN(CCCC3Sc4ccccc4NC3=S)CC2)c1 (stereo not shown) [Example 11] | > 300 | 32 | 35
Cc1ccnc(N2CCN(CCCCC3Oc4ccccc4NC3=O)CC2)c1 (stereo not shown) [Example 7] | – | 85 | 74
